From patent US7410975B2, “Small molecule toll-like receptor (TLR) antagonists” (Coley Pharmaceutical Group, Inc., priority 2003, dated 2008) come the findings set out here.

Structures can show the parent of a compound that is named as a salt.

In one test the target is T1, human TLR8 (hTLR8) (Homo sapiens, UniProt Q9NR97).
T1 construct: expressed in transfected cells
T1 sequence (Q9NR97 27-1041): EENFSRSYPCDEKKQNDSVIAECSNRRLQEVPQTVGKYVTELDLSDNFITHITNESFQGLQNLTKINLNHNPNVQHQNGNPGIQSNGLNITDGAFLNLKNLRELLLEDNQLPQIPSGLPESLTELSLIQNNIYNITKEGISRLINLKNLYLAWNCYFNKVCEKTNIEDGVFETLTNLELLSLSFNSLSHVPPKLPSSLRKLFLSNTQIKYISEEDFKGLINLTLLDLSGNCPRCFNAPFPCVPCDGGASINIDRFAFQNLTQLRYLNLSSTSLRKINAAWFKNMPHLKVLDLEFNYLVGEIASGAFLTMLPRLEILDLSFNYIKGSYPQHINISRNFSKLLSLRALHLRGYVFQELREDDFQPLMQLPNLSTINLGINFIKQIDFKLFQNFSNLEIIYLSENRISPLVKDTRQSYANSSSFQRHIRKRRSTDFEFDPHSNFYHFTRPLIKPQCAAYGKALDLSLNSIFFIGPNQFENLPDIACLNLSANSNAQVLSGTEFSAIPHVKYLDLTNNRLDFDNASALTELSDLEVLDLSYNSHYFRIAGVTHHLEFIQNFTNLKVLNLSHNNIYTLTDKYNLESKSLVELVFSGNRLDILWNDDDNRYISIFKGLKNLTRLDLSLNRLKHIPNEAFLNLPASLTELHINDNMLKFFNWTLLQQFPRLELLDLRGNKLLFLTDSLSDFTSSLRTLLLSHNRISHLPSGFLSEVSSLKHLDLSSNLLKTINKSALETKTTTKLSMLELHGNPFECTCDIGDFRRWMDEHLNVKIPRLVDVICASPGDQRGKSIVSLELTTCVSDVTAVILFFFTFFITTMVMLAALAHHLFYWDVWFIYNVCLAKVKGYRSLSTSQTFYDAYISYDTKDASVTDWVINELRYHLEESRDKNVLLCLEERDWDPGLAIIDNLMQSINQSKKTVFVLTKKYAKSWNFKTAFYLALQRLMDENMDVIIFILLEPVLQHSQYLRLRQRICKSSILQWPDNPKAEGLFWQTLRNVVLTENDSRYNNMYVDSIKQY
Description: Antagonist screen, hTLR8-NFκB-293 cells, NF-κB-luciferase reporter, with EC50 of R848. It counts as cell-based. Particulars: compound at 0.5, 5, 50 μg/ml; EC50 concentration of R848; 16 h; NF-κB-luciferase. For orientation: A reporter such as luciferase makes a cellular process visible.
On to `CN1CCc2cccc3c2[C@H]1Cc1ccc(O)c(O)c1-3.Cl` [compound 101, Apomorphinehydrochloride (R, —)], for which the “hTLR8 (inhibitory effect, antagonist score)” value was 11 (compounds for which there was clear down regulation only at 50 μg/ml).
On to `CC(C)(C)c1ccc(C(O)CCCN2CCC(C(O)(c3ccccc3)c3ccccc3)CC2)cc1` (stereo not drawn) [compound 138, Terfenadine], for which the “hTLR8 (inhibitory effect, antagonist score)” value is listed as 11 (compounds for which there was clear down regulation only at 50 μg/ml).
Take `CN(C)C(=O)C(CCN1CCC(O)(c2ccc(Cl)cc2)CC1)(c1ccccc1)c1ccccc1` [compound 144, Loperamidehydrochloride]: the “hTLR8 (inhibitory effect, antagonist score)” value was 11 (compounds for which there was clear down regulation only at 50 μg/ml).
For `COc1cc2c(cc1O)C[C@H]1c3c(cc(O)c(OC)c3-2)CCN1C` [compound 600, Boldine], the “hTLR8 (inhibitory effect, antagonist score)” value is listed as “— (compounds for which there was no clear down regulation even at 50 μg/ml)”.
For `CN1CCc2cc3c(c4c2C1Cc1ccccc1-4)OCO3.Cl` (stereo not drawn) [compound 669, Remerine hydrochloride], the “hTLR8 (inhibitory effect, antagonist score)” value was “— (compounds for which there was no clear down regulation even at 50 μg/ml)”.
Still for that read-out and setting: next, `COc1cc2nc(N3CCN(C(=O)C4CCCO4)CC3)nc(N)c2cc1OC.Cl` (stereo not drawn) [compound 751, Terazosin hydrochloride]: “— (compounds for which there was no clear down regulation even at 50 μg/ml)”; `COc1cc2nc(N3CCN(C(=O)C4COc5ccccc5O4)CC3)nc(N)c2cc1OC.CS(=O)(=O)O` (stereo not drawn) [compound 858, Doxazosin mesylate]: “— (compounds for which there was no clear down regulation even at 50 μg/ml)”; `CCN(CC)CCCC(C)Nc1nc(/C=C/c2ccc(Cl)cc2)nc2cc3ccccc3cc12` (stereo not drawn) [compound 2000]: 11 (compounds for which there was clear down regulation only at 50 μg/ml).

The same test, now with this note: hTLR8-NFκB-293 cells, with EC50 of R848; compound at 0.5, 5 and 50 μg/ml.
As to `COc1cc2cc3c4cc(OC)c(OC)cc4cc[n+]3c(C)c2cc1OC` [compound 431, Coralyne chloridehydrate], the “hTLR8 (inhibitory effect)” value is recorded as “— (compounds for which there was no clear down regulation even at 50 μg/ml)”.
On the same count and under the same terms, next, `COc1ccc(Cc2nccc3cc(OC)c(OC)cc23)cc1OC.Cl` [compound 583, Papaverinehydrochloride]: “— (compounds for which there was no clear down regulation even at 50 μg/ml)”; `COc1ccc2cc3[n+](cc2c1OC)CCc1cc2c(cc1-3)OCO2.[Cl-]` [compound 586, Berberine chloride]: 12 (compounds for which there was clear down regulation at 5 μg/ml and 50 μg/ml).
In the case of `CC[N+](C)(CC)CCC[n+]1c(-c2ccccc2)c2cc(N)ccc2c2ccc(N)cc21.[I-].[I-]` [compound 792, Propidium iodide], the “hTLR8 (inhibitory effect)” value is listed as “— (compounds for which there was no clear down regulation even at 50 μg/ml)”.
For `CN(C)CCN(Cc1ccc(Cl)cc1)c1ccccn1.Cl` [compound 807, Chloro-pyraminehydrochloride], the “hTLR8 (inhibitory effect)” value is listed as “— (compounds for which there was no clear down regulation even at 50 μg/ml)”.
On the same count and under the same terms, next, `CCOc1ccc(Cc2nccc3cc(OCC)c(OCC)cc23)cc1OCC.Cl` [compound 830, Ethaverinehydrochloride]: 11 (compounds for which there was clear down regulation only at 50 μg/ml); `O=c1c2c(nc(NCCO)n1-c1ccccc1)-c1ccccc1CC21CCCC1` [compound 891]: “— (compounds for which there was no clear down regulation even at 50 μg/ml)”.
On to `O=c1c2c(nc(NCCO)n1Cc1ccccc1)-c1ccccc1CC21CCCC1` [compound 926], for which the “hTLR8 (inhibitory effect)” value is 11 (compounds for which there was clear down regulation only at 50 μg/ml).
For the compound `CN1CCc2c1nc1ccccc1c2N` [compound 990, 1-Methyl-2,3-dihydro-1H-pyrrolo[2,3-b]quinolin-4-ylamine], the “hTLR8 (inhibitory effect)” value is on record as “— (compounds for which there was no clear down regulation even at 50 μg/ml)”.
As for `CN1CCc2c1nc1ccccc1c2NC(=O)CN1CCCCCC1` [compound 1003], the “hTLR8 (inhibitory effect)” value is reported as “— (compounds for which there was no clear down regulation even at 50 μg/ml)”.
As to `Cc1ccc2nc3c(c(N)c2c1)CCN3C` [compound 1091, 1,6-Dimethyl-2,3-dihydro-1H-pyrrolo[2,3-b]quinolin-4-ylamine], the “hTLR8 (inhibitory effect)” value is 11 (compounds for which there was clear down regulation only at 50 μg/ml).
On to `Cc1ccc(-n2c(NCCO)nc3c(c2=O)C2(CCCCC2)Cc2ccccc2-3)cc1` [compound 1137], for which the “hTLR8 (inhibitory effect)” value was 11 (compounds for which there was clear down regulation only at 50 μg/ml).
Consider `CN1CCc2c1nc1ccc(Br)cc1c2N` [compound 1142, 6-Bromo-1-methyl-2,3-dihydro-1H-pyrrolo[2,3-b]quinolin-4-ylamine], for which the “hTLR8 (inhibitory effect)” value is 11 (compounds for which there was clear down regulation only at 50 μg/ml).
For the compound `O=C1c2ccc(S(=O)(=O)c3ccc4c(c3)C(=O)N(c3ccccn3)C4=O)cc2C(=O)N1c1ccccn1` [compound 1163], the “hTLR8 (inhibitory effect)” value is 11 (compounds for which there was clear down regulation only at 50 μg/ml).
The same measure, in the same setting: next, `CN1CCCCc2c1nc1ccccc1c2N` [compound 1185, 1-Methyl-2,3,4,5-tetrahydro-1H-azepino[2,3-b]quinolin-6-ylamine]: “— (compounds for which there was no clear down regulation even at 50 μg/ml)”; `CN1CCc2c1nc1ccccc1c2NC(=O)CN1CCN(c2ccccc2)CC1` [compound 1212]: “— (compounds for which there was no clear down regulation even at 50 μg/ml)”.
Turning to `Cn1c(NN)nc2c(c1=O)C1(CCCC1)Cc1ccccc1-2` [compound 1213], the “hTLR8 (inhibitory effect)” value is given as “— (compounds for which there was no clear down regulation even at 50 μg/ml)”.
On to `Nc1c2c(nc3ccccc13)N(Cc1ccccc1)CC2` [compound 1217, 1-Benzyl-2,3-dihydro-1H-pyrrolo[2,3-b]quinolin-4-ylamine], for which the “hTLR8 (inhibitory effect)” value is on record as 11 (compounds for which there was clear down regulation only at 50 μg/ml).
As for `CCCCCCN(CCCCCC)CC(=O)Nc1c2c(nc3ccccc13)N(C)CC2` [compound 1224], the “hTLR8 (inhibitory effect)” value is 12 (compounds for which there was clear down regulation at 5 μg/ml and 50 μg/ml).
As for `O=C(CN1CCCC1)Nc1c2c(nc3ccccc13)N(c1ccccc1)CC2` [compound 1244], the “hTLR8 (inhibitory effect)” value is reported as 11 (compounds for which there was clear down regulation only at 50 μg/ml).
Same read-out and setting: next, `NNc1nc2c(c(=O)n1C1CCCC1)C1(CCCC1)Cc1ccccc1-2` [compound 1248]: 11 (compounds for which there was clear down regulation only at 50 μg/ml); `NNc1nc2c(c(=O)n1-c1ccccc1)C1(CCCC1)Cc1ccccc1-2` [compound 1320]: “— (compounds for which there was no clear down regulation even at 50 μg/ml)”.
In the case of `O=c1[nH]c(NCCO)nc2c1C1(CCCC1)Cc1ccccc1-2` [compound 1322], the “hTLR8 (inhibitory effect)” value is recorded as “— (compounds for which there was no clear down regulation even at 50 μg/ml)”.
Consider `CCCCCCCCCCCC(=O)Nc1c2c(nc3ccccc13)N(C)CC2` [compound 1334], for which the “hTLR8 (inhibitory effect)” value is recorded as “— (compounds for which there was no clear down regulation even at 50 μg/ml)”.
Same read-out and setting: next, `O=C1c2ccc(Oc3ccc(S(=O)(=O)c4ccc(Oc5ccc6c(c5)C(=O)N(c5ccccn5)C6=O)cc4)cc3)cc2C(=O)N1c1ccccn1` [compound 1367]: 11 (compounds for which there was clear down regulation only at 50 μg/ml).
